In assay [1] the test system is IL-1β processing and release from PMA/LPS stimulated THP-1 cells. Description: ATP-induced processing and release of IL-1β from PMA/LPS stimulated THP-1 cells (human IL-1β ELISA). The format is cell-based. Conditions: 5 mM ATP for one hour; for effect on ATP-induced processing and release of IL-1β: test compound 0.5-150 μM, 30 min pretreatment, IL-1β in media by ELISA. The method, then:
THP-1 non-adherent, monocytic cells (ATCC) were pre-treated with phorbol-12-myristate-13-acetate (PMA), which differentiated the cells into macrophage-like cells. Briefly, approximately 8×10^6 THP-1 cells were harvested, pelleted, resuspended in media to which PMA was added at a final concentration of 0.5 μM. The cells were incubated for 3 hours, then collected, washed, and plated.
The next day, the cells were treated with lipopolysaccharide (LPS) to stimulate IL-1β production. Briefly, the media was removed and replaced with RPI media+10% fetal calf serum containing 100 ng/ml of LPS. Cells were incubated for an additional 24 hours.
Cells were pretreated for 30 minutes, then the media was replaced with media containing 5 mM ATP as well as the test compound. Cells were exposed to ATP for one hour. Media was then collected and the amount of IL-1β in the media was determined using a human IL-1β ELISA (R&D Systems).
Results were expressed as the mean±sem. Statistical analysis was performed using […] (Medistats). […] IL-1β levels were measured in the cell culture media by ELISA and the results are expressed as a percent of the untreated (baseline) controls.

Another assay concerns HEK 293 cells. Description: MTT cell viability assay in parent HEK 293 cells. The format is cell-based. Here is the method: (§1) Parent (HEK 293) cells, and HEK 293 cells expressing rat P2X7 (HEK 293 P2X7 (rat) cells) were treated with ATP (Sigma, A9062) to determine the effects of ATP on the viability of the cells. Cell viability was determined using an MTT assay (Wen, 2003). Cells were treated with between 0 and 2 μM of ATP. MTT was added to the cell cultures 180 minutes after ATP treatment. The MTT assay was performed 60 minutes after the addition of MTT. Cell viability was directly correlatable to the absorbance of 550 nm light by the cell culture, with a higher absorbance meaning higher cell viability. The cell culture media was removed and the cells were solubilized using DMSO. The absorbance of the solubilized cells was read.
(§2) HEK 293 and HEK 293 P2X7 (rat) cells were treated with 0 to 50 μM of P5P, a vitamin B6 related compound, in sodium salt form (Chemistry Department, CanAm Bioresearch Inc.). Thirty minutes later, cells were treated with 0.4 μM ATP, to determine the effects of ATP on the viability of the MC-1 treated cells. Control cells received sham treatment of P5P, and sham treatment of ATP.
Cell viability was determined using an MTT assay. MTT was added to the cell cultures 180 minutes after ATP treatment. […] Cell viability was directly correlatable to the absorbance of 550 nm light by the cell culture, with a higher absorbance meaning higher cell viability.

Another assay concerns the target T1, rat P2X7 receptor (Rattus norvegicus, UniProt Q64663).
T1 construct: expressed in transfected cells; host or cells: HEK 293
T1 sequence (Q64663 1-595): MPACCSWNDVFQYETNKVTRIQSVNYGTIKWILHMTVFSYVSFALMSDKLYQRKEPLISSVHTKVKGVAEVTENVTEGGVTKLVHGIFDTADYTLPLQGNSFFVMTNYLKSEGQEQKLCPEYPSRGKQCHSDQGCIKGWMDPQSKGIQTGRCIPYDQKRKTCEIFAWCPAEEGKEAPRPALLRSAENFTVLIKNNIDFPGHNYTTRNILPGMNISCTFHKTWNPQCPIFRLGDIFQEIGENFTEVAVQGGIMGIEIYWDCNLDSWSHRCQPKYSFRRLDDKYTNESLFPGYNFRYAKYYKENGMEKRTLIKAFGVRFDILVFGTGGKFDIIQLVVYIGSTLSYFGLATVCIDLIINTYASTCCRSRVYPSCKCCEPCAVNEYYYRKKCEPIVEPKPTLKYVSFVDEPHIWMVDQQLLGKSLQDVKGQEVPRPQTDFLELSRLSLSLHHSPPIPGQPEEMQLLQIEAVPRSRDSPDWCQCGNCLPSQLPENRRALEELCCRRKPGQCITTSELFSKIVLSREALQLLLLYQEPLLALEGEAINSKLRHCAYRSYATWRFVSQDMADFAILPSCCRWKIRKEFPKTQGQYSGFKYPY
Description: MTT cell viability assay in HEK 293 cells stably expressing rat P2X7 (ATP-mediated, P2X7-dependent cell death). The format is cell-based. Conditions: HEK 293 P2X7 (rat) cells. The method, then:
HEK 293 cells were stably transfected to express rat P2X7 receptor, using standard tissue culture techniques (Surprenant et al, 1996). The cell line was known to not express any of the other P2X receptors (Schachter et al, 1997). Stable expression of P2X7 was confirmed by Western blot (results not shown).
as §1, §2
Cell viability was determined using an MTT assay. MTT was added to the cell cultures 180 minutes after ATP treatment. The MTT assay was performed 60 minutes after the addition of MTT. Cell viability was directly correlatable to the absorbance of 550 nm light by the cell culture, with a higher absorbance meaning higher cell viability.

The next assay deals with IL-1β. Description: Cytokine response of lipopolysaccharide treated rats (plasma IL-1β). The format is in vivo, Sprague-Dawley rats. Conditions: blood at 240 min, example in present tense. The method, then:
Sprague-Dawley rats weighing approximately 300 g are treated with 1, 3, or 10 mg/kg P5P (or a saline control). Thirty minutes later (t=30), the animals are given a 50 μg/kg intraperitoneal injection of LPS (or a saline control). Temperature of the animals is measured, and a blood sample is collected at 240 minutes post-treatment (t=240).
Blood samples are transferred to heparinized tubes and plasma is separated by centrifugation. Plasma is assayed for IL-1β, [IL-6 and TNF-α].

The target in the next assay is T2, P2X7 receptors (Rattus norvegicus, UniProt Q64663).
T2 construct: expressed in transfected cells; host or cells: HEK 293
T2 sequence (Q64663 1-595): T1 sequence (Q64663 1-595)
Description: BzATP-mediated, P2X7-dependent cell death (Examples 1-2 repeated with BzATP). Conditions: BzATP substituted for ATP; example in present tense. Format: cell-based. An excerpt: Examples 1-2 are repeated, substituting BzATP for ATP. BzATP is known to be a specific agonist of P2X7 receptors. This Example yields results consistent with Examples 1-4, further establishing that the pathway utilized is a P2X7 dependent pathway.

“Also recorded” adds a separate entry of the source.

From US20090215727A1, “INHIBITION OF ATP-MEDIATED, P2X7 DEPENDENT PATHWAYS BY PYRIDOXAL-5-PHOSPHATE AND VITAMIN B6 RELATED COMPOUNDS” (MEDICURE INTERNATIONAL INC., priority 2005, published 2009) come the findings set out here.

Take `Nc1ncnc2c1ncn2[C@@H]1O[C@H](COP(=O)(O)OP(=O)(O)OP(=O)(O)O)[C@@H](O)[C@H]1O` [ATP, adenosine triphosphate]: in assay [1] (PMA/LPS primed THP-1 cells, versus untreated baseline), the “processing and release of IL-1β into the culture media” value is listed as “significant increase”. In addition, the “cell viability (MTT, absorbance at 550 nm)” value in the assay with HEK 293 cells (parent HEK 293 cells, up to 2 μM ATP, MTT added 180 min after ATP) was “did not significantly affect”. The “ATP concentration from which significant loss in cell viability starts (MTT)” value at rat P2X7 receptor (0 to 2 μM ATP tested) was at least 0.4 µM.
For the molecule `Cc1ncc(COP(=O)(O)O)c(C=O)c1O` [P5P, pyridoxal-5′-phosphate], the “effect on ATP-induced processing and release of IL-1β” value (“effect” below) in assay [1] is given as “uniquely effective; also recorded: significantly inhibited”. For the same molecule, the “cell viability (MTT) after P5P pretreatment and ATP” value in the assay with HEK 293 cells (HEK 293 cells, 0 to 50 μM P5P 30 min before 0.4 μM ATP) is reported as “did not have any significant effect”. Moreover, the “cell viability (MTT) of ATP treated cells after P5P pretreatment” value is “significantly improved” on rat P2X7 receptor (50 μM P5P half an hour before 0.4 μM ATP) and “did not significantly affect” on rat P2X7 receptor (1.5 to 15 μM P5P 30 min before 0.4 μM ATP). On rat P2X7 receptor (50 μM P5P, 0.4 μM ATP, control = sham P5P and sham ATP), the “viability of P5P pretreated, ATP treated cells compared with control cells” value is recorded as “no significant difference”. Also, the “processing and release of IL-1β in vivo (plasma)” value in the assay with IL-1β (rats, 1, 3 or 10 mg/kg P5P 30 min before 50 μg/kg i.p. LPS) is reported as “significantly inhibits”. At P2X7 receptors, the “protection from BzATP-mediated, P2X7-dependent cell death” value is reported as “Protects Cells”.
As for `Cc1ncc(CO)c(C=O)c1O` [pyridoxal], the “effect” value in assay [1] is reported as “not effective; also recorded: no significant effect”.
Take `Cc1ncc(CO)c(CN)c1O` [pyridoxamine]: in assay [1], the “effect” value is reported as “not effective; also recorded: no significant effect”.
Take `Cc1ncc(CO)c(CO)c1O` [pyridoxine]: the “effect” value in assay [1] is “not effective; also recorded: no significant effect”.
For the molecule lipopolysaccharide [LPS], the “processing and release of IL-1β [IL-6 and TNF-α] into the plasma” value in the assay with IL-1β (rats, 50 μg/kg intraperitoneal LPS) is listed as “significant increase”.
As to pyridoxamine phosphate, the “effect” value in assay [1] is “not effective; also recorded: no significant effect”.
